Assay results published in article PMC10779222, “Copper(II) Complexes with 1-(Isoquinolin-3-yl)heteroalkyl-2-ones: Synthesis, Structure and Evaluation of Anticancer, Antimicrobial and Antioxidant Potential” (International Journal of Molecular Sciences, 2023).

How the values were obtained:
[1] = tested on: HepG2 (hepatoma); assay: MTT cytotoxicity assay on HepG2 cells; type: cell-based, human
Experimental: (§1) Cytotoxic activity of the investigated compounds was evaluated against T98G (glioblastoma), HepG2 (hepatoma), LS-180 (colon cancer) and A375 (melanoma) cell lines. Human normal skin fibroblasts, CCD-1059Sk (CRL-2072), were used as reference (non-cancerous) cells. All of the cell lines were obtained from American Type Culture Collection (ATCC; Manassas, VA, USA). A375, T98G and CCD-1059Sk cells were cultured in Dulbecco’s Modified Eagle’s Medium (DMEM) (Sigma Aldrich, St. Louis, MO, USA) supplemented with 10% FBS, penicillin (100 U/mL) and streptomycin (100 μg/mL). LS-180 and HepG2 cells were cultured in Eagle’s Minimum Essential Medium supplemented with 10% FBS, penicillin (100 U/mL) and streptomycin (100 μg/mL). All of the cells were maintained at 37 °C in a humidified atmosphere of 5% CO2. The compounds were dissolved in DMSO in order to obtain stock solutions. At the day of the experiment, the suspension of cells (1 × 10^5 cells/mL) was distributed onto 96-well plates at a volume of 100 μL/well. After attachment, the cells were treated with the increased concentrations of the tested compounds in medium containing 2% FBS and incubated for 24 h. Then, the medium was removed from wells, and cells were rinsed with PBS. Afterwards, 15 μL of MTT working solution (5 mg/mL in PBS) was added to each well, and the plates were incubated for 3 h. Subsequently, 100 μL of 10% SDS solution was added to each well in order to dissolve the precipitated formazan crystals. After overnight incubation at 37 °C, the absorbance of the obtained solution was measured at λ = 570 nm using a microplate reader (Epoch, BioTek Instruments, Inc., Winooski, VT, USA). At least two independent experiments were performed in triplicate. […] IC50 values of the investigated derivatives and positive control (etoposide) were calculated using the IC50 online calculator [101].

[2] = tested on: LS-180 (colon cancer); assay: MTT cytotoxicity assay on LS-180 cells; type: cell-based, human; conditions: 24 h incubation
Experimental: as §1

[3] = tested on: T98G (glioblastoma); assay: MTT cytotoxicity assay on T98G cells; type: cell-based
Experimental: as §1

[4] = tested on: CCD-1059Sk (human normal skin fibroblasts); assay: MTT cytotoxicity assay on non-cancerous fibroblasts; type: cell-based; conditions: 24 h incubation, non-cancerous cells
Experimental: as §1

[5] = tested on: A375, HepG2, LS-180, T98G and CCD-1059Sk cell lines; assay: MTT cytotoxicity assay, summary statements over several cell lines; type: cell-based; conditions: range over HepG2 and T98G
Experimental: as §1

[6] = tested on: HepG2 cells; assay: Cell cycle analysis (image cytometry, DAPI) in HepG2; type: cell-based, human; conditions: C2 at IC50 concentration
Experimental: (§2) Cell cycle analysis of T98G and HepG2 cells pretreated with copper(II) complex C2 (CX) (at IC50 concentration) was performed on NucleoCounter NC-3000 Image Cytometer (ChemoMetec, Lillerod, Denmark). The investigated cells were seeded on 6-well culture plates (Corning Inc., New York, NY, USA) at the density of 1 × 10^5 cells/mL and cultured in the respective medium at 37 °C in a humidified atmosphere of 5% CO2. When the cells reached approximately 80% confluence, they were treated with C2 (CX), at a concentration of IC50, for 24 h. Subsequently, the cells were detached with trypsine, suspended in 250 μL of lysis buffer (Solution 10) supplemented with DAPI (10 μg/mL) and incubated for 5 min at 37 °C. Following this, stabilization buffer (Solution 11) was added, and the obtained cell suspension was applied on NC-slide and analyzed using NucleoCounter NC-3000 Image Cytometer equipped with NucleoView NC-3000^TM software (ChemoMetec A/S, Lillerod, Denmark). Experiments were repeated three times, and the measurements in each experiment were run in duplicate.

[7] = tested on: T98G cells; assay: Cell cycle analysis (image cytometry, DAPI) in T98G; type: cell-based, human; conditions: 24 h, C2 at IC50 concentration
Experimental: as §2

[8] = tested on: T98G cells; conditions: C2 at 0.25 µg/mL (non-cytotoxic), drugs at IC50 or 100 µg/mL, 24 h, MTT
Experimental: Next, T98G or HepG2 cells were incubated for 24 h with medium containing a mixture of the respective drugs mixed with the highest non-toxic concentration of C2 (CX). The viability of cells was evaluated using MTT assay, as described above. ANOVA analysis (with Tukey’s post hoc test) was performed in order to examine the possible interactions between compound C2 (CX) and ETO, CIS, 5-FU and TMZ.

[9] = tested on: Candida albicans ATCC 102231; assay: Two-fold microdilution broth method, MIC; type: cell-based; conditions: 35 °C, 24 h
Description: (§3) Antibacterial and antifungal activities of the free ligands L2, L3 and L4 and the corresponding copper(II) complexes C2, C3 and C4 were screened using the two-fold microdilution broth method. Minimal inhibitory concentrations (MICs) of tested compounds for the panel of reference Gram-positive bacteria, including Staphylococcus aureus ATCC 25923, Staphylococcus aureus ATCC BAA-1707, Staphylococcus epidermidis ATCC 12228, Micrococcus luteus ATCC 10240 and Bacillus cereus ATCC 10876; Gram-negative bacteria, including Salmonella Typhimurium ATCC 14028, Escherichia coli ATCC 25922, Proteus mirabilis ATCC 12453, Klebsiella pneumoniae ATCC 13883 and Pseudomonas aeruginosa ATCC 9027; and yeasts, including Candida albicans ATCC 102231, Candida parapsilosis ATCC 22019 and Candida glabrata ATCC 90030 were determined. The procedure has been described in detail before. Briefly, the solutions of tested compounds dissolved in dimethylosulfoxide (DMSO) were suspended in Mueller–Hinton broth for bacteria or Mueller–Hinton broth with 2% glucose for fungi. Then, the series of two-fold dilutions were carried out in the sterile Nunc™ MicroWell™ 96-Well Microplates (ThermoFisher Scientific Inc.), obtaining concentrations from 1000 to 7.8 mg/L in the appropriate medium. Simultaneously, the inocula of 24 h cultures of microorganisms in sterile physiological saline (0.5 McFarland standard density) were prepared and added to each well, obtaining final density of 5 × 10^5 CFU/mL for bacteria and 5 × 10^4 CFU/mL for yeasts. Proper positive (inoculum without tested compound) and negative (compound without inoculum) controls were added in each microplate. After incubation (35 °C, 24 h), the growth of microorganisms was measured spectrophotometrically at 600 nm (BioTEK ELx808, Bio-Tek Instruments, Inc., Winooski, VT, USA). MICs were marked at the lowest concentration of the compound without the growth of bacteria or fungi.

[10] = tested on: Candida glabrata ATCC 90030; assay: Two-fold microdilution broth method, MIC; type: cell-based; conditions: 35 °C, 24 h
Description: as §3

[11] = tested on: Candida parapsilosis ATCC 22019; assay: Two-fold microdilution broth method, MIC; type: cell-based; conditions: 35 °C, 24 h
Description: as §3

O=C1NCCN1c1cc2ccccc2cn1.O=C1NCCN1c1cc2ccccc2cn1.[Cl][Cu][Cl] [C2, Dichloro{bis[1-(Isoquinolin-3-yl)imidazolidin-2-one]}copper(II)]
selectivity index (SI), HepG2 ([1]; HepG2 compared with CCD-1059-Sk): 4.33 | highest concentration that did not affect the viability of HepG2 cells ([1]; MTT assay): 0.25 µg/mL | IC50 ± SD, HepG2 ([1]; MTT, 24 h incubation): 5.04 ± 0.42 µg/mL | IC50 ± SD, LS180 [2]: 5.88 ± 0.40 µg/mL | highest concentration that did not affect the viability of T98G cells ([3]; MTT assay): 0.25 µg/mL | IC50 ± SD, T98G ([3]; MTT, 24 h incubation): 6.97 ± 0.52 µg/mL | selectivity index (SI), T98G ([3]; T98G compared with CCD-1059-Sk): 3.14 | IC50 ± SD, CCD-1059-Sk [4]: 21.86 ± 1.03 µg/mL | IC50, HepG2 and T98G [5]: 5.04 to 6.97 µg/mL | effect on cell cycle progression, HepG2 ([6]; 24 h): cell cycle arrest in the sub-G1 phase | DNA content in the sub-G1 phase ([6]; HepG2, 24 h, control cells 10%, p < 0.0001): 29% | effect on cell cycle progression, T98G [7]: cell cycle arrest in the G2/M phase | effect on cytotoxicity of anticancer drugs, T98G [8]: statistically significantly improved the cytotoxic effects of ETO, 5-FU and TMZ | MIC, C. albicans ATCC 102231 [9]: 1000 µg/mL | MIC, C. glabrata ATCC 90030 [10]: >1000 µg/mL | MIC, C. parapsilosis ATCC 22019 [11]: 1000 µg/mL
